Data reported in patent US8022235B2, “Compositions of phospholipid ether boronic acids and esters and methods for their synthesis and use” (Cellectar, Inc., priority 2007, dated 2011).

Columns and labels:
animal tumor models = conditions: radioiodinated analogs, xenograft and spontaneous tumor rodent models, previous reports; cited from earlier work
Adrenal RL-251 = assay: Imaging and tissue distribution, tumor model; type: in vivo, SCID Mouse
[1] = tested on: human PC-3 prostate tumor xenografts; assay: Scintigraphy, microPET and tissue distribution in PC-3 tumor model; type: in vivo, SCID mice
Procedure: The avidity of PLE and APC analogs to localize in tumors was evaluated in several animal models. The PC-3 model represents a human tumor cell line that was used to determine the target (tumor) to non-target ratio of NM404 and NM412 in head to head comparison in order to select a candidate for an initial human pharmacokinetic trial in prostate cancer patients. The MatLyLu (Dunning R3327 rat) model, a rat prostate tumor line, was used specifically to screen 9 specific analogs prior to entering them into control for dosimetry and tumor-bearing animals for determining tumor/background ratios. Finally, the Walker-256 carcinosarcoma model was used for quantitative tissue distribution purposes.
Gamma camera scintigraphy images shown in FIG. 5 directly compare the tumor uptake and body clearance of second generation analog ^125I-NM404 (1) versus its shorter chain, first generation predecessor, ^125I-NM324 (12-(m-iodophenyl)dodecyl phosphocholine) at 1, 2, and 4 days post administration in immune-compromised SCID mice bearing human PC-3 prostate tumor xenografts.
Tumor uptake, however, continued to increase up until day 5 when it reached 18% injected dose per gram of tumor. […] Tumor to background tissue ratios exceeded 4, 6.8, 23, and 9 in blood, liver, muscle, and prostate, respectively, 3 days after injection and continued to improve at 5 and 8 days. Again, although thyroid levels ranged from 26 to 54% injected dose per gram of tissue, these levels are actually quite low and represent an extremely small percentage of the injected dose when the exceedingly small mass of the organ is considered and the data are presented on a percent administered dose per organ basis.

Melanoma A-375 = assay: Imaging and tissue distribution, tumor model; type: in vivo, Nude Mouse; conditions: Adenocarcinoma
[2] = Toxicology studies of unlabeled NM404 in rats; type: in vivo; conditions: for toxic effects: 14 days observation
Source text: In preparation for human clinical trials, unlabeled NM404 was subjected to independent (University of Buffalo Toxicology Research Center) acute toxicity evaluation at 1200 times the anticipated imaging mass dose in rats and rabbits. […] Due to its selective tumor uptake and retention properties in a variety of rodent tumor models and subsequent excellent safety profile in rats and rabbits, NM404 was selected to undergo initial human pharmacokinetic evaluation in non-small cell lung cancer (NSCLC) patients. Patients underwent planar gamma-camera scintigraphy after receiving an injection of ^131I-NM404 (<1 mCi).
Formal toxicology studies of NM404 in male rats and rabbits were performed at the Toxicology Research Center of the State University of New York at Buffalo under the direction of Dr. Paul Kostyniak. Drug vehicle and drug product were provided to Dr. Kostyniak by Dr. Raymond Counsell of the University of Michigan for testing as described in the appended synopses of Study 27 and Study 28. […] Human safety studies of unlabeled NM404 were initiated in normal male humans at a mass of 10 times the anticipated imaging dose and about 21 times the anticipated therapy dose. […] This toxicology study was performed under GLP conditions.
Subsequently, the inventors initiated a toxicology study of unlabeled NM404 in female rats and rabbits (Study 31 and Study 32) at the Toxicology Research Center at SUNY-Buffalo in order to expand the patient population to be studied in the NSCLC Phase 1 clinical trial. […] Human safety studies of unlabeled NM404 were initiated in normal female humans at a mass of 10 times the initially anticipated imaging dose and about 21 times the anticipated therapy dose. […] This toxicology study was performed under GLP conditions.

[3] = tested on: A549 human non-small cell lung cancer xenografts; assay: Single-dose 125I-NM404 treatment, tumor volume, A549 xenografts; type: in vivo, SCID mice; conditions: unlabeled compound (control group), 10-week assessment
Source text: FIG. 3 illustrates antitumor effect of single-dose treatment with ^125I-125-NM404 at doses of 50 (∘), 150 (□), 250 (⋄) and 500 (∘) μCi in SCID mice bearing A549 human non-small cell lung cancer xenografts. In FIG. 3, control animals show rapidly growing tumors over the 10-week assessment period. […] Tumor volumes are stable and some tumors appear “collapsed” (the tumor surface has collapsed). Additionally, hair above the tumors fell off confirming substantial accumulation of radioactivity in these tumors.
FIG. 4 is an image showing one of the tumor-bearing animals treated with 250 μCi of ^125I-NM404 at 4 weeks following injection. The hair above the tumor has fallen off, apparently due to the significant accumulation of radioactivity in the tumor. […] The measurement method for determining outer tumor dimensions may have underestimated tumor volume response following dosing with ^125I-NM404;
The inventors have previously shown that ^125I-labeled PLE analogs such as NM404 are effective in targeting tumor therapies to tumor cells following single injection and fractionated dosing. For assessment of efficacy of ^125I-NM404 treatment, assessments of tumor volume were made until 10 weeks post-injection or until no animal in the control group was alive, whatever came first. Summarizing the results, control animals show rapidly growing tumors over the 10-week assessment period. See, FIGS. 2 and 3. […] Tumor volumes are stable and the same tumors appear “collapsed” (the tumor surface has caved in). Additionally, the hair above the tumors fell off confirming substantial accumulation of radioactivity in these tumors, FIG. 4. […] (See also, for example, U.S. patent application Ser. No. 11/671,403 hereby incorporated in its entirety for all purposes.)

[4] = tested on: Pancreatic c-myc and kras; assay: Imaging and tissue distribution, tumor model; type: in vivo, Spontaneous mice; conditions: Adenocarcinoma
Source text: Imaging and tissue distribution studies performed in mouse models aimed at determining the uptake characteristics in a wide variety of tumor models are summarized in Table 1, below.

Ovarian HTB-77 = assay: Imaging and tissue distribution, tumor model; type: in vivo, Nude Mouse; conditions: Adenocarcinoma
[5] = tested on: mouse intestinal adenocarcinoma model; assay: Therapeutic responses at imaging doses, aggressive intestinal model; type: in vivo; conditions: 12 days following administration, ^125I-labeled
Source text: During the course of mouse tumor uptake and retention studies with “imaging” doses (15-20 μCi/20 g mouse) of ^125I-labeled NM404, several apparent therapeutic responses have been observed (unpublished results). […] Some of these animals also lost all hair above larger mammary tumors at around 8 days after injection. Moreover, these mice also get intestinal tumors and usually suffer from intestinal bleeding resulting in severe anemia, which renders their feet white. […] Another compelling example of tumor regression is illustrated in FIG. 13. Two litter mates each received SCC1 and SCC6 xenografts in their left and right flanks, respectively. One mouse received a single injection of ^125I-NM404 (20 μCi). […] These coincidental findings were reconfirmed in two separate age-matched groups each involving more than 6 mice.

Compound: C[N+](C)(C)CCOP(=O)([O-])OCCCCCCCCCCCCCCCCCCc1ccc(I)cc1 [NM404, 18-(p-iodophenyl)-octadecyl phosphocholine]
- selective retention by tumors (animal tumor models): selectively retained by a variety of human and animal tumors
- Uptake (Adrenal RL-251; Adenocarcinoma): Yes
- tumor retention (Adrenal RL-251; human adrenal tumor xenograft, FIG. 7): Prolonged tumor retention
- tumor to background tissue ratio, blood ([1]; 3 days after injection): exceeded 4
- tumor to background tissue ratio, liver ([1]; 3 days after injection): > 6.8
- tumor to background tissue ratio, muscle ([1]; 3 days after injection): > 23
- tumor to background tissue ratio, prostate ([1]; 3 days after injection): > 9
- elimination of radioactivity from normal tissues ([1]; 8 day evaluation period): rapid elimination of radioactivity from all normal tissues
- Uptake ([1]; Prostate PC-3, Adenocarcinoma): Yes
- tumor uptake ([1]; SCID mouse prostate and A549 lung cancer tumor models): exceeding 25 % of the injected dose
- tumor uptake ([1]; radioiodinated NM404, day 5 (maximum)): 18 % injected dose per gram of tumor
- liver and background radioactivity ([1]; scintigraphy at 1, 2 and 4 days, compared with NM324): much improved
- Uptake (Melanoma A-375): Yes
- acute toxicity ([2]; 1200 times the anticipated imaging mass dose): well tolerated and no acute toxicities were found
- toxic effects ([2]; female rats, single dose 0.04 mg/kg, Study 31, GLP): No significant toxic effects
- toxic effects ([2]; male rats, single dose 4 mg/kg, Study 27, GLP): No significant toxic effects
- effect on tumor growth [3]: no substantial effect on tumor growth
- Uptake [4]: Yes
- Uptake (Ovarian HTB-77): Yes
- intestinal tumors at dissection [5]: most, if not all, of the expected intestinal tumors were gone
